# Test results from ChEMBL document CHEMBL3856195, “2,3,4-Trihydroxybenzyl-hydrazide analogues as novel potent coxsackievirus B3 3C protease inhibitors” (Eur J Med Chem, 2016).
# Active and inactive are the calls of the source. No cut-off for these calls is given here.
# How the values were obtained:
# Genome polyprotein [1] = target: T1, Genome polyprotein (Coxsackievirus B3 (strain Nancy), UniProt P03313); experiment: Inhibition of recombinant Coxsackievirus B3 3C protease expressed in Escherichia coli BL21 (DE3) preincubated for 5 mins followed by addition of NMA-EALFQGPPVK-DNP-rrr-NH2 as substrate measured up to 2 hrs by FRET-based enzyme assay
# Coxsackievirus B3 = experiment: Antiviral activity against Coxsackievirus B3 infected in human HeLa cells at 10 uM measured after 20 to 24 hrs by CCK8 assay; format: functional; conditions: Enterovirus B
# [2] = Cytotoxicity against human HeLa cells assessed as reduction in cell viability at 10 and 100 uM by CCK8 assay; format: toxicity, cell-based
# [3] = target: Genome polyprotein (Coxsackievirus B3 (strain Nancy)) (UniProt P03313); experiment: Non-competitive inhibition of recombinant Coxsackievirus B3 3C protease expressed in Escherichia coli BL21 (DE3) preincubated with protein followed by addition of NMA-EALFQGPPVK-DNP-rrr-NH2 as substrate measured every 5 mins for 2 hrs by Michaelis-Menten plot analysis
# Genome polyprotein [4] = target: T1, Genome polyprotein; experiment: Competitive inhibition of recombinant Coxsackievirus B3 3C protease expressed in Escherichia coli BL21 (DE3) preincubated with protein followed by addition of NMA-EALFQGPPVK-DNP-rrr-NH2 as substrate measured every 5 mins for 2 hrs by Dixon plot analysis
# [5] = target: Genome polyprotein (Coxsackievirus B3 (strain Nancy)) (UniProt P03313); experiment: Mixed-type inhibition of recombinant Coxsackievirus B3 3C protease expressed in Escherichia coli BL21 (DE3) preincubated with protein followed by addition of NMA-EALFQGPPVK-DNP-rrr-NH2 as substrate measured every 5 mins for 2 hrs by Lineweaver-Burk plot analysis
# [6] = Apparent permeability in MDCK cells at 50 uM and measured after 30 mins by LC-MS/MS analysis; format: ADME, cell-based, Canis lupus familiaris; conditions: dog
# Genome polyprotein [7] = target: T1, Genome polyprotein; experiment: Inhibition of recombinant Coxsackievirus B3 3C protease expressed in Escherichia coli BL21 (DE3) preincubated for 5 mins followed by addition of NMA-EALFQGPPVK-DNP-rrr-NH2 as substrate measured every 10 mins for 2 hrs by FRET-based enzyme assay
# Genome polyprotein [8] = target: T1, Genome polyprotein; experiment: Inhibition of recombinant Coxsackievirus B3 C-terminal 6His-tagged 3C protease expressed in Escherichia coli BL21 preincubated for 20 mins followed by addition of fluorogenic peptide as substrate by Cheng-Prusoff equation analysis
# T1 sequence (P03313 1541-1723 limits assumed): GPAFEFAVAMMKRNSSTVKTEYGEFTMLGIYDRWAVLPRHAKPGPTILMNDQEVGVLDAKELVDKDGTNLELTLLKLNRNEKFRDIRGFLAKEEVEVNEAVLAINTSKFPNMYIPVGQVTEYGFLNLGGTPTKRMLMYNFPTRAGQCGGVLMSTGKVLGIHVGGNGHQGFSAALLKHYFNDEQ
# Sequence of Genome polyprotein (Coxsackievirus B3 (strain Nancy)) (P03313 whole entry): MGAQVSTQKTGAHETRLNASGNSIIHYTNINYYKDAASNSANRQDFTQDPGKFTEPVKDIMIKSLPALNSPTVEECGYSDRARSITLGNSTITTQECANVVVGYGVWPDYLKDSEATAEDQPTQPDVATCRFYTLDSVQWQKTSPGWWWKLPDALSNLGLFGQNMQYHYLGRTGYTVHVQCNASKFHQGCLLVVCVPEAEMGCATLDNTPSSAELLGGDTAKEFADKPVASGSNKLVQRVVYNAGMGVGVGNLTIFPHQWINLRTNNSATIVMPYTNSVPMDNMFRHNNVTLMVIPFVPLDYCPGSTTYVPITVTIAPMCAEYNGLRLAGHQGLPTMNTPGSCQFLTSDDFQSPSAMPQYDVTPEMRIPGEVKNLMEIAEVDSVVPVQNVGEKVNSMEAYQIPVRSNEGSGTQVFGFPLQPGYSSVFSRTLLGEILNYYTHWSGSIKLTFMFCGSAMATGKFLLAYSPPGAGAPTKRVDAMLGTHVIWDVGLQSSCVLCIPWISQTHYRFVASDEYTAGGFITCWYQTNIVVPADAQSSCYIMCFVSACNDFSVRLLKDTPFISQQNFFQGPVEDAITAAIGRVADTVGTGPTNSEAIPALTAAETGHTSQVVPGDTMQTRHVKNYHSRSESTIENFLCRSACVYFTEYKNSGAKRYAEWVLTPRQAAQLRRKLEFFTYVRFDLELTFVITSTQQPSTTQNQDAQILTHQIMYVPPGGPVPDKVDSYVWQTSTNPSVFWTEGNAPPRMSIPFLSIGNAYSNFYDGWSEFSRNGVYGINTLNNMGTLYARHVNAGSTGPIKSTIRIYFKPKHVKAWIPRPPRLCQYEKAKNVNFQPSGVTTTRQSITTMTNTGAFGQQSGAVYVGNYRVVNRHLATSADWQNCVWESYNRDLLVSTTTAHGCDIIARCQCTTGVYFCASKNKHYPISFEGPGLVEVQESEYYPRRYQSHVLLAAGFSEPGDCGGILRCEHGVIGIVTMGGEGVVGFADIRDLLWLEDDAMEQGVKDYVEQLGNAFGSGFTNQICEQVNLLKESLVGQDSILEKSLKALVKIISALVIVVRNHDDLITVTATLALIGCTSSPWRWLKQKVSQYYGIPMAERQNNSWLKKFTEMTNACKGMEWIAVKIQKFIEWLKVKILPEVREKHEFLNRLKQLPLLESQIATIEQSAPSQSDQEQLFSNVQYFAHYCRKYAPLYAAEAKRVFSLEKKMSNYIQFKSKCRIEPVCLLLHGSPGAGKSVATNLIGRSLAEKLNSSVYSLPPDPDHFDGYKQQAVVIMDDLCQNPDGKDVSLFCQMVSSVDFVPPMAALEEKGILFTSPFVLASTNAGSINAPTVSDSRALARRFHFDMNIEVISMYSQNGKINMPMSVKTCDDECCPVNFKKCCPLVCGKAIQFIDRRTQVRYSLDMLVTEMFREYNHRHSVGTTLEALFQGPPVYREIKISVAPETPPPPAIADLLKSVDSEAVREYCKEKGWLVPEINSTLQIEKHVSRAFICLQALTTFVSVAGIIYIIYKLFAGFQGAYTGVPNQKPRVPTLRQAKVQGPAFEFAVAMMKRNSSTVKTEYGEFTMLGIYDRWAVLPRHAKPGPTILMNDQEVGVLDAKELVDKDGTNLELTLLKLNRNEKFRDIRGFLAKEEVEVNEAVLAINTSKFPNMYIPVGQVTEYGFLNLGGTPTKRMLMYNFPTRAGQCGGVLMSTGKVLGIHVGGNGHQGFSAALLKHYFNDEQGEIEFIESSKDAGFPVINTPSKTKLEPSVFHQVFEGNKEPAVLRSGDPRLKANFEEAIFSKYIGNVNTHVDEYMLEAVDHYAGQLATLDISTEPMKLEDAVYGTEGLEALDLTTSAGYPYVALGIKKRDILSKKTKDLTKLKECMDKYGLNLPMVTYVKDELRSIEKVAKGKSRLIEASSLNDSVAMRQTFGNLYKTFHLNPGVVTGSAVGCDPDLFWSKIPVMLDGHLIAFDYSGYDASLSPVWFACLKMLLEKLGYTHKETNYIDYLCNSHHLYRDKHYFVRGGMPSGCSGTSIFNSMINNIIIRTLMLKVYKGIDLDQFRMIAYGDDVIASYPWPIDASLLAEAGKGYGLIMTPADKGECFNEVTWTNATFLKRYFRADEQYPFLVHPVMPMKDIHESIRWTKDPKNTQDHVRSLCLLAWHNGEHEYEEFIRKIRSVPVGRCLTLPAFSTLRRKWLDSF
compound,measurement,setting,value
CC(C)(C)OC(=O)NC(Cc1ccc(O)cc1)C(=O)NNCc1ccc(O)c(O)c1O (stereo not drawn),IC50,Genome polyprotein [1],270 nM
CCCCC(=O)Oc1c(O)ccc(CNNC(=O)c2ccc(O)cc2)c1O,IC50,Genome polyprotein [1],1020 nM
same,inhibition at 10 µM,Coxsackievirus B3,38%
O=C(N/N=C/c1ccc(O)c(O)c1O)c1ccc(Br)cc1,IC50,Genome polyprotein [1],460 nM
CC(C)(C)OC(=O)NC(Cc1ccc(O)cc1)C(=O)N/N=C/c1ccc(O)c(O)c1O (stereo not drawn),IC50,Genome polyprotein [1],540 nM
O=C(CCCCc1ccccc1)N/N=C/c1ccc(O)c(O)c1O,IC50,Genome polyprotein [1],440 nM
CS(=O)(=O)c1cccc(/C=N/NC(=O)c2ccccc2)c1,IC50,Genome polyprotein [1],> 50000 nM
O=C(N/N=C/c1ccc(O)c(O)c1O)c1ccc(F)cc1,IC50,Genome polyprotein [1],870 nM
O=C(Cc1ccc(O)cc1)N/N=C/c1ccc(O)c(O)c1O,IC50,Genome polyprotein [1],180 nM
CC(C)(C)OC(=O)NC(Cc1ccc(F)cc1)C(=O)N/N=C/c1ccc(O)c(O)c1O (stereo not drawn),IC50,Genome polyprotein [1],890 nM
O=C(N/N=C/c1ccccc1)c1ccccc1,IC50,Genome polyprotein [1],> 50000 nM
O=C(NNCc1ccc(O)c(O)c1O)c1ccc(Cl)cc1,IC50,Genome polyprotein [1],430 nM
O=C(Cc1ccc(O)cc1)NNCc1ccc(O)c(O)c1O,IC50,Genome polyprotein [1],110 nM
O=C(CCCCc1ccc(O)cc1)NNCc1ccc(O)c(O)c1O,IC50,Genome polyprotein [1],70 nM
same,Activity,[2],Non-Toxic
same,inhibition,[3],Dose-dependent effect
same,Ki,Genome polyprotein [4],324 nM
same,inhibition,[5],Active
O=C(NNCc1ccc(O)c(O)c1O)c1ccc(O)cc1,IC50,Genome polyprotein [1],170 nM
same,Activity,[2],Non-Toxic
O=C(CCCCc1ccc(O)cc1)N/N=C/c1ccc(O)c(O)c1O,IC50,Genome polyprotein [1],110 nM
same,Activity,[2],Non-Toxic
same,"Papp at 0.5 h, 50 µM",[6],11 ×10⁻⁶ cm/s
Cc1cc(C(=O)N[C@H](C(=O)N[C@@H](Cc2ccc(F)cc2)C(=O)NNCc2ccc(O)c(O)c2O)C(C)C)no1,IC50,Genome polyprotein [1],230 nM
O=C(NNCc1c(O)cc(O)cc1O)c1ccccc1,IC50,Genome polyprotein [1],770 nM
O=C(CCc1ccc(F)cc1)N/N=C/c1ccc(O)c(O)c1O,IC50,Genome polyprotein [1],580 nM
O=C(CCCc1ccccc1)N/N=C/c1ccc(O)c(O)c1O,IC50,Genome polyprotein [1],710 nM
CC(C)(C)OC(=O)NC(Cc1ccc(F)cc1)C(=O)NNCc1ccc(O)c(O)c1O (stereo not drawn),IC50,Genome polyprotein [1],780 nM
O=C(Cc1ccccc1)NNCc1ccc(O)c(O)c1O,IC50,Genome polyprotein [1],410 nM
O=C(CCc1ccccc1)N/N=C/c1ccc(O)c(O)c1O,IC50,Genome polyprotein [1],690 nM
O=C(N/N=C/c1ccccc1O)c1ccccc1 [SALICYLALDEHYDE BENZOYL HYDRAZONE],IC50,Genome polyprotein [1],> 50000 nM
O=C(CCCc1ccccc1)NNCc1ccc(O)c(O)c1O,IC50,Genome polyprotein [1],340 nM
NC(CO)C(=O)NNCc1ccc(O)c(O)c1O (stereo not drawn) [BENSERAZIDE],IC50,Genome polyprotein [7],2400 nM
CS(=O)(=O)c1ccc(C(=O)NNCc2ccc(O)c(O)c2O)cc1,IC50,Genome polyprotein [1],770 nM
O=C(N/N=C/c1cccc(O)c1O)c1ccccc1,IC50,Genome polyprotein [1],> 50000 nM
O=C(N/N=C/c1ccc(O)c(O)c1O)c1ccc(O)cc1,IC50,Genome polyprotein [1],320 nM
same,Activity,[2],Non-Toxic
O=C(N/N=C/c1ccc(O)c(O)c1O)c1ccccc1,IC50,Genome polyprotein [1],970 nM
CS(=O)(=O)c1ccc(/C=N/NC(=O)c2ccccc2)cc1,IC50,Genome polyprotein [1],> 50000 nM
O=C(CCCCc1ccccc1)NNCc1ccc(O)c(O)c1O,IC50,Genome polyprotein [1],190 nM
O=C(Cc1ccccc1)N/N=C/c1ccc(O)c(O)c1O,IC50,Genome polyprotein [1],750 nM
O=C(CCCc1ccc(F)cc1)N/N=C/c1ccc(O)c(O)c1O,IC50,Genome polyprotein [1],640 nM
O=C(CCc1ccc(O)cc1)NNCc1ccc(O)c(O)c1O,IC50,Genome polyprotein [1],80 nM
O=C(N/N=C/c1ccc(O)c(O)c1O)c1ccc(Cl)cc1,IC50,Genome polyprotein [1],590 nM
O=C(NNCc1ccc(O)c(O)c1O)c1ccccc1,IC50,Genome polyprotein [1],650 nM
O=C(NNCc1ccc(O)c(O)c1O)c1ccc(F)cc1,IC50,Genome polyprotein [1],650 nM
O=C(N/N=C/c1ccc(O)cc1)c1ccccc1,IC50,Genome polyprotein [1],> 50000 nM
O=C(N/N=C/c1ccc(O)cc1O)c1ccccc1,IC50,Genome polyprotein [1],> 50000 nM
CC(=O)/C=C/[C@H](C[C@@H]1CNCC1=O)NC(=O)[C@H](CC(C)C)NC(=O)[C@H](CNC(=O)C(C)(C)C)NC(=O)OCc1ccccc1,Ki,Genome polyprotein [8],800 nM
CCCCC(=O)Oc1c(O)ccc(CNNC(=O)CCCCc2ccc(O)cc2)c1O,IC50,Genome polyprotein [1],870 nM
same,Activity,[2],Non-Toxic
same,inhibition at 10 µM,Coxsackievirus B3,43%
O=C(CCCc1ccc(O)cc1)N/N=C/c1ccc(O)c(O)c1O,IC50,Genome polyprotein [1],160 nM
O=C(CCc1ccccc1)NNCc1ccc(O)c(O)c1O,IC50,Genome polyprotein [1],320 nM
Cc1cc(C(=O)N[C@H](C(=O)N[C@@H](Cc2ccc(F)cc2)C(=O)N/N=C/c2ccc(O)c(O)c2O)C(C)C)no1,IC50,Genome polyprotein [1],610 nM
O=C(CCCc1ccc(O)cc1)NNCc1ccc(O)c(O)c1O,IC50,Genome polyprotein [1],100 nM
O=C(CCCCc1ccc(F)cc1)N/N=C/c1ccc(O)c(O)c1O,IC50,Genome polyprotein [1],470 nM
NC(CO)C(=O)N/N=C/c1ccc(O)c(O)c1O (stereo not drawn),IC50,Genome polyprotein [7],2700 nM
CS(=O)(=O)c1ccc(C(=O)N/N=C/c2ccc(O)c(O)c2O)cc1,IC50,Genome polyprotein [1],890 nM
O=C(CCc1ccc(F)cc1)NNCc1ccc(O)c(O)c1O,IC50,Genome polyprotein [1],200 nM
O=C(CCCc1ccc(F)cc1)NNCc1ccc(O)c(O)c1O,IC50,Genome polyprotein [1],400 nM
CCCCC(=O)Oc1c(O)ccc(/C=N/NC(=O)CCCCc2ccc(O)cc2)c1O,IC50,Genome polyprotein [1],970 nM
same,Activity,[2],Non-Toxic
same,inhibition at 10 µM,Coxsackievirus B3,62%
same,"Papp at 0.5 h, 50 µM",[6],25 ×10⁻⁶ cm/s
O=C(N/N=C/c1cccc(O)c1)c1ccccc1,IC50,Genome polyprotein [1],> 50000 nM
O=C(Cc1ccc(F)cc1)N/N=C/c1ccc(O)c(O)c1O,IC50,Genome polyprotein [1],660 nM
O=C(Cc1ccc(F)cc1)NNCc1ccc(O)c(O)c1O,IC50,Genome polyprotein [1],340 nM
O=C(CCc1ccc(O)cc1)N/N=C/c1ccc(O)c(O)c1O,IC50,Genome polyprotein [1],120 nM
O=C(NNCc1ccc(O)c(O)c1O)c1ccc(Br)cc1,IC50,Genome polyprotein [1],210 nM
O=C(N/N=C/c1cc(O)ccc1O)c1ccccc1,IC50,Genome polyprotein [1],5510 nM
O=C(N/N=C/c1cc(O)cc(O)c1)c1ccccc1,IC50,Genome polyprotein [1],> 50000 nM
O=C(N/N=C/c1c(O)cc(O)cc1O)c1ccccc1,IC50,Genome polyprotein [1],1070 nM
O=C(CCCCc1ccc(F)cc1)NNCc1ccc(O)c(O)c1O,IC50,Genome polyprotein [1],230 nM
O=C(N/N=C/c1ccc(O)c(O)c1)c1ccccc1,IC50,Genome polyprotein [1],> 50000 nM
CCCCC(=O)Oc1c(O)ccc(/C=N/NC(=O)c2ccc(O)cc2)c1O,IC50,Genome polyprotein [1],1210 nM
same,Activity,[2],Non-Toxic
same,inhibition at 10 µM,Coxsackievirus B3,42%
